Like-named read-outs stand apart in the source and are kept apart here. Positions of bridges follow the written chain, without caps; N, C: chain ends. Non-standard residues stand in square brackets, D forms with d. Residues, ends and D or L forms follow the SMILES beside them. ξ: configuration not given here. *: point of attachment. X31 = CCCCCCCCCCCCCCCC(=O)NCCCC[C@H](NC(=O)[C@H](CC(=O)O)CC(=O)CCOCCOCCOCCOCCOCCOCCN*)C(N)=O; X28 = O=C(O)CCCCCCCCCCNC(=O)CCC(=O)NCCCOCCOCCOCCCNC(=O)CCC(=O)NCCCOCCOCCOCCCN*; X12 = O=C(O)CCCCCCCCCCCCCCCCCCC(=O)N[C@@H](CCC(=O)NCCCOCCOCCOCCCN*)C(=O)O; X6 = O=C(O)CCCCCCCCCCCCCCCCC(=O)N[C@@H](CCC(=O)NCCCOCCOCCOCCCN*)C(=O)O; X13 = O=C(O)CCCCCCCCCCCCCCC(=O)N[C@@H](CCC(=O)NCCCOCCOCCOCCCN*)C(=O)O; Trp(1-CH2COOH) = N[C@@H](Cc1cn(CC(=O)O)c2ccccc12)C(=O)O; X14 = O=C(O)CCCCCCCCCCNC(=O)CCC(=O)NCCCOCCOCCOCCCN*; d(cisHyp) = O=C(O)[C@H]1C[C@@H](O)CN1; NH(CH2)12COOH = O=C(O)CCCCCCCCCCCCN*; Bta = N[C@@H](Cc1csc2ccccc12)C(=O)O; Stearoyl = CCCCCCCCCCCCCCCCCC(=O)*; cisHyp = O=C(O)[C@@H]1C[C@H](O)CN1; Aha = [N-]=[N+]=NCC[C@H](N)C(=O)O; Palmitoyl = CCCCCCCCCCCCCCCC(=O)*; Hyp = O=C(O)[C@@H]1C[C@@H](O)CN1; NMeNle = CCCC[C@H](NC)C(=O)O; NMeA = CN[C@@H](C)C(=O)O; Dab = NCC[C@H](N)C(=O)O; Dap = NC[C@H](N)C(=O)O; Ava = NCCCCC(=O)O; ξC = NC(CS)C(=O)O
Biological target: T1, PD-L1 (Homo sapiens, UniProt Q9NZQ7)
T1 construct: hPDL1(19-239)-TVMV-His; made in house; host or cells: HEK293T
Assay: PD-1/PD-L1 Homogenous Time-Resolved Fluorescence (HTRF) binding assay (PD-1-Ig/PD-L1-His)
Conditions: inhibition of PD-1-Ig binding to PD-L1-TVMV-His, read-out: HTRF IC50
Procedure, shortened: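 Inhibitors pre-incubated 15 min with PD-L1-His (10 nM final), then PD-1-Ig (20 nM final) added for 15 min in dPBS/0.1% BSA/0.05% Tween-20. Eu-cryptate anti-Ig (1 nM) and APC anti-His (20 nM) added, 30 min equilibration, 665/620 nm HTRF ratio read.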

T1 sequence (Q9NZQ7 with tags, fused parts or gaps): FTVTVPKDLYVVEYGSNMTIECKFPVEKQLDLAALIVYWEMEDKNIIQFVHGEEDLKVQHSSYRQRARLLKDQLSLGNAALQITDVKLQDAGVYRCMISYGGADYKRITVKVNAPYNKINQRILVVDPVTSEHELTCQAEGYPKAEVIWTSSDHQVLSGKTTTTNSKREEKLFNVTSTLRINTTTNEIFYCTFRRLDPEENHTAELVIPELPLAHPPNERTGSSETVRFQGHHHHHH

IC50 (value given as range class) [nM]	IC50 (value given as number) [nM]	Structure (SMILES)
0.3 to 9.9		CCCC[C@H]1C(=O)N(C)[C@@H](CCCC)C(=O)N[C@@H](CCCNC(=N)N)C(=O)N[C@H](C(=O)NCC(=O)N[C@@H](CCN=[N+]=[N-])C(N)=O)CSCC(=O)N[C@@H](Cc2ccc(O)cc2)C(=O)N(C)[C@@H](C)C(=O)N[C@@H](CC(N)=O)C(=O)N2CCC[C@H]2C(=O)N[C@@H](CN)C(=O)N[C@@H](CC(C)C)C(=O)N2C[C@H](O)C[C@H]2C(=O)N[C@@H](Cc2c[nH]c3ccccc23)C(=O)N[C@@H](CO)C(=O)N[C@@H](Cc2csc3ccccc23)C(=O)N1C [INT 1300B] ({CH2CO}-Y[NMeA]NP[Dap]L[Hyp]WS[Bta][NMeNle][NMeNle]RCG[Aha]-NH2; thioether N-14)
10 to 99		CCCC[C@H]1C(=O)N(C)[C@@H](CCCC)C(=O)N[C@@H](CCC(=O)O)C(=O)N[C@H](C(=O)NCC(=O)N[C@@H](Cc2cn(CC[C@H](NC(=O)CCCCCCCCCCCCCCC(=O)O)C(=O)O)nn2)C(=O)N[C@@H](CC(=O)O)C(N)=O)CSCC(=O)N[C@@H](Cc2ccc(O)cc2)C(=O)N(C)[C@@H](C)C(=O)N[C@@H](CC(=O)O)C(=O)N2CCC[C@H]2C(=O)N[C@@H](Cc2c[nH]cn2)C(=O)N[C@@H](CCCCN)C(=O)N2C[C@H](O)C[C@H]2C(=O)N[C@@H](Cc2c[nH]c3ccccc23)C(=O)N[C@@H](CCCCN)C(=O)N[C@@H](Cc2c[nH]c3ccccc23)C(=O)N1C [Example 14065]
0.3 to 9.9		CCCC[C@H]1C(=O)N(C)[C@@H](CCCC)C(=O)N[C@@H](CC(C)C)C(=O)N[C@H](C(=O)NCC(=O)NCCCOCCOCCOCCCNC(=O)CC[C@H](NC(=O)CCCCCCCCCCCCCCC(=O)O)C(=O)O)CSCC(=O)N[C@@H](Cc2ccc(O)cc2)C(=O)N(C)[C@@H](C)C(=O)N[C@@H](CC(N)=O)C(=O)N2CCC[C@@H]2C(=O)N[C@@H](CN)C(=O)N[C@@H](CC(C)C)C(=O)N2C[C@H](O)C[C@@H]2C(=O)N[C@@H](Cc2c[nH]c3ccccc23)C(=O)N[C@@H](CCN)C(=O)N[C@@H](Cc2cn(CC(=O)O)c3ccccc23)C(=O)N1C [Example 11168] ({CH2CO}-Y[NMeA]N[dP][Dap]L[d(cisHyp)]W[Dab][Trp(1-CH2COOH)][NMeNle][NMeNle]LCG-X13; thioether N-14)
10 to 99		CCCCCCCCCCCCCCCC(=O)NCCCC[C@H](NC(=O)[C@H](CC(=O)O)CC(=O)CCOCCOCCOCCOCCOCCOCCNC(=O)[C@H](CC(=O)O)NC(=O)CNC(=O)C1CSCC(=O)N[C@@H](Cc2ccc(O)cc2)C(=O)N(C)[C@@H](C)C(=O)N[C@@H](CC(=O)O)C(=O)N2CCC[C@H]2C(=O)N[C@@H](Cc2cnc[nH]2)C(=O)N[C@@H](CC(C)C)C(=O)N2C[C@H](O)C[C@H]2C(=O)N[C@@H](Cc2c[nH]c3ccccc23)C(=O)N[C@@H](CO)C(=O)N[C@@H](Cc2c[nH]c3ccccc23)C(=O)N(C)[C@@H](CCCC)C(=O)N(C)[C@@H](CCCC)C(=O)N[C@@H](CCCNC(=N)N)C(=O)N1)C(N)=O (stereo partly shown) [Example 11018] ({CH2CO}-Y[NMeA]DPHL[Hyp]WSW[NMeNle][NMeNle]R[ξC]GD-X31; thioether N-14)
10 to 99		CCCC[C@H]1C(=O)N(C)[C@@H](CCCC)C(=O)N[C@@H](CC(C)C)C(=O)N[C@H](C(=O)N[C@@H](CC(=O)O)C(=O)N[C@@H](CC(=O)NCCCOCCOCCOCCCNC(=O)CC[C@H](NC(=O)CCCCCCCCCCCCCCCCCCC(=O)O)C(=O)O)C(=O)O)CSCC(=O)N[C@@H](Cc2ccc(O)cc2)C(=O)N(C)[C@@H](C)C(=O)N[C@@H](CC(N)=O)C(=O)N2CCC[C@H]2C(=O)N[C@@H](CN)C(=O)N[C@@H](CC(C)C)C(=O)N2C[C@H](O)C[C@H]2C(=O)N[C@@H](Cc2c[nH]c3ccccc23)C(=O)N[C@@H](CCN)C(=O)N[C@@H](Cc2cn(CC(=O)O)c3ccccc23)C(=O)N1C [Example 11252] ({CH2CO}-Y[NMeA]NP[Dap]L[Hyp]W[Dab][Trp(1-CH2COOH)][NMeNle][NMeNle]LCDD(X12)-OH; thioether N-14)
10 to 99		CCCC[C@H]1C(=O)N(C)[C@@H](CCCC)C(=O)N[C@@H](CC(C)C)C(=O)N[C@H](C(=O)NCC(=O)NCC(=O)NCC(=O)NCCCCC(=O)O)CSCC(=O)N[C@@H](Cc2ccc(O)cc2)C(=O)N(C)[C@@H](C)C(=O)N[C@@H](CC(N)=O)C(=O)N2CCC[C@H]2C(=O)N[C@@H](CN)C(=O)N[C@@H](CC(C)C)C(=O)N2C[C@H](O)C[C@@H]2C(=O)N[C@@H](Cc2c[nH]c3ccccc23)C(=O)N[C@@H](CCN)C(=O)N[C@@H](Cc2cn(CC(=O)O)c3ccccc23)C(=O)N1C [Example 11137] ({CH2CO}-Y[NMeA]NP[Dap]L[d(cisHyp)]W[Dab][Trp(1-CH2COOH)][NMeNle][NMeNle]LCGGG[Ava]-OH; thioether N-14)
0.3 to 9.9		CCCC[C@H]1C(=O)N(C)[C@@H](CCCC)C(=O)N[C@@H](CC(C)C)C(=O)N[C@H](C(=O)NCC(=O)N[C@@H](CC(=O)O)C(=O)N[C@@H](CC(=O)NCCCOCCOCCOCCCNC(=O)CC[C@H](NC(=O)CCCCCCCCCCCCCCCCC(=O)O)C(=O)O)C(=O)O)CSCC(=O)N[C@@H](Cc2ccc(O)cc2)C(=O)N(C)[C@@H](C)C(=O)N[C@@H](CC(N)=O)C(=O)N2CCC[C@H]2C(=O)N[C@@H](CN)C(=O)N[C@@H](CC(C)C)C(=O)N2C[C@H](O)C[C@H]2C(=O)N[C@@H](Cc2c[nH]c3ccccc23)C(=O)N[C@@H](CCN)C(=O)N[C@@H](Cc2cn(CC(=O)O)c3ccccc23)C(=O)N1C [Example 11225] ({CH2CO}-Y[NMeA]NP[Dap]L[Hyp]W[Dab][Trp(1-CH2COOH)][NMeNle][NMeNle]LCGDD(X6)-OH; thioether N-14)
100 to 1600		CCCC[C@H]1C(=O)N(C)[C@@H](CCCC)C(=O)N[C@@H](CC(C)C)C(=O)N[C@H](C(=O)NCCCOCCOCCOCCCNC(=O)CCC(=O)NCCCOCCOCCOCCCNC(=O)CCC(=O)NCCCCCCCCCCC(=O)O)CSCC(=O)N[C@@H](Cc2ccc(O)cc2)C(=O)N(C)[C@@H](C)C(=O)N[C@@H](CC(N)=O)C(=O)N2CCC[C@H]2C(=O)N[C@@H](CN)C(=O)N[C@@H](CCC(N)=O)C(=O)N2C[C@H](O)C[C@H]2C(=O)N[C@@H](Cc2c[nH]c3ccccc23)C(=O)N[C@@H](CO)C(=O)N[C@@H](Cc2cn(CC(=O)O)c3ccccc23)C(=O)N1C [Example 11088] ({CH2CO}-Y[NMeA]NP[Dap]Q[Hyp]WS[Trp(1-CH2COOH)][NMeNle][NMeNle]LC-X28; thioether N-14)
	952	CCCCCCCCCCCCCCCCCC(=O)NCCCC[C@H](NC(=O)[C@@H]1CSCC(=O)N[C@@H](Cc2ccc(O)cc2)C(=O)N(C)[C@@H](C)C(=O)N[C@@H](CC(N)=O)C(=O)N2CCC[C@H]2C(=O)N[C@@H](CCN)C(=O)N[C@@H](CC(C)C)C(=O)N2C[C@H](O)C[C@H]2C(=O)N[C@@H](Cc2c[nH]c3ccccc23)C(=O)N[C@@H](CO)C(=O)N[C@@H](Cc2c[nH]c3ccccc23)C(=O)N(C)[C@@H](CCCC)C(=O)N(C)[C@@H](CCCC)C(=O)N[C@@H](CCCNC(=N)N)C(=O)N1)C(N)=O [Example 11001] ({CH2CO}-Y[NMeA]NP[Dab]L[Hyp]WSW[NMeNle][NMeNle]RCK(Stearoyl)-NH2; thioether N-14)
0.3 to 9.9		CCCC[C@H]1C(=O)N(C)[C@@H](CCCC)C(=O)N[C@@H](CC(C)C)C(=O)N[C@H](C(=O)N[C@H](CC(=O)O)C(=O)NCC(=O)NCCCCCCCCCCCCC(=O)O)CSCC(=O)N[C@@H](Cc2ccc(O)cc2)C(=O)N(C)[C@@H](C)C(=O)N[C@@H](CC(=O)O)C(=O)N2CCC[C@@H]2C(=O)N[C@@H](Cc2cnc[nH]2)C(=O)N[C@@H](CCCCN)C(=O)N2C[C@@H](O)C[C@H]2C(=O)N[C@@H](Cc2c[nH]c3ccccc23)C(=O)N[C@@H](CCCCN)C(=O)N[C@@H](Cc2cn(CC(=O)O)c3ccccc23)C(=O)N1C [Example 11211] ({CH2CO}-Y[NMeA]D[dP]HK[cisHyp]WK[Trp(1-CH2COOH)][NMeNle][NMeNle]LC[dD]G-{NH(CH2)12COOH}; thioether N-14)
100 to 1600		CCCCCCCCCCCCCCCCNC(=O)CCCCCCCCCCNC(=O)[C@@H]1CSCC(=O)N[C@@H](Cc2ccc(O)cc2)C(=O)N(C)[C@@H](C)C(=O)N[C@@H](CC(N)=O)C(=O)N2CCC[C@H]2C(=O)N[C@@H](Cc2cnc[nH]2)C(=O)N[C@@H](CC(C)C)C(=O)N2C[C@H](O)C[C@H]2C(=O)N[C@@H](Cc2c[nH]c3ccccc23)C(=O)N[C@@H](CO)C(=O)N[C@@H](Cc2c[nH]c3ccccc23)C(=O)N(C)[C@@H](CCCC)C(=O)N(C)[C@@H](CCCC)C(=O)N[C@@H](CCCNC(=N)N)C(=O)N1 [Example 11115]
0.3 to 9.9		CCCC[C@H]1C(=O)N(C)[C@@H](CCCC)C(=O)N[C@@H](CCC(=O)O)C(=O)N[C@H](C(=O)NCCCOCCOCCOCCCNC(=O)CCC(=O)NCCCCCCCCCCC(=O)O)CSCC(=O)N[C@@H](Cc2ccc(O)cc2)C(=O)N(C)[C@@H](C)C(=O)N[C@@H](CC(=O)O)C(=O)N2CCC[C@H]2C(=O)N[C@@H](CN)C(=O)N[C@@H](CC(C)C)C(=O)N2C[C@H](O)C[C@@H]2C(=O)N[C@@H](Cc2c[nH]c3ccccc23)C(=O)N[C@@H](CCN)C(=O)N[C@@H](Cc2cn(CC(=O)O)c3ccccc23)C(=O)N1C [Example 11145] ({CH2CO}-Y[NMeA]DP[Dap]L[d(cisHyp)]W[Dab][Trp(1-CH2COOH)][NMeNle][NMeNle]EC-X14; thioether N-14)
100 to 1600		CCCCCCCCCCCCCCCC(=O)NCCCC[C@H](NC(=O)[C@H](CC(=O)O)NC(=O)CNC(=O)[C@@H]1CSCC(=O)N[C@@H](Cc2ccc(O)cc2)C(=O)N(C)[C@@H](C)C(=O)N[C@@H](CC(N)=O)C(=O)N2CCC[C@H]2C(=O)N[C@@H](CCN)C(=O)N[C@@H](CC(C)C)C(=O)N2C[C@H](O)C[C@H]2C(=O)N[C@@H](Cc2c[nH]c3ccccc23)C(=O)N[C@@H](CO)C(=O)N[C@@H](Cc2c[nH]c3ccccc23)C(=O)N(C)[C@@H](CCCC)C(=O)N(C)[C@@H](CCCC)C(=O)N[C@@H](CCCNC(=N)N)C(=O)N1)C(N)=O [Example 11027] ({CH2CO}-Y[NMeA]NP[Dab]L[Hyp]WSW[NMeNle][NMeNle]RCGDK(Palmitoyl)-NH2; thioether N-14)

Source: patent publication US10633419B2, “Immunomodulators” (BRISTOL-MYERS SQUIBB COMPANY, priority 2014, dated 2020)
